Data taken from PubChem BioAssay AID2060490 (Molecular Pharmacology Branch, DTP, NCI, 2025).

System: 885512-296-R-J2-PDC complex spheroid viability
Assay: Anticancer human tumor 885512-296-R-J2-PDC patient-derived breast carcinoma cell line growth inhibition [GQUAD]
Settings: for IC50: curve of first compound; for viability, T/C: stronger effect = lower value
In short: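 Tumor cells were grown as complex spheroids with HUVEC endothelial cells and mesenchymal stem cells as stroma. G-quadruplex stabilizers were combined with targeted agents over half-log dilutions from near the clinical Cmax, or from 10 microM.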

[1] = second compound 0.0316 µM, first compound 0.0316 µM
[2] = second compound 0.0316 µM, first compound 0.1 µM
[3] = second compound 0.0316 µM, first compound 0.316 µM
[4] = second compound 0.0316 µM, first compound 1 µM
[5] = second compound 0.0316 µM, first compound 3.16 µM
[6] = second compound 0.0316 µM, first compound 10 µM
[7] = second compound 0.1 µM, first compound 0.0316 µM
[8] = second compound 0.1 µM, first compound 0.1 µM
[9] = second compound 0.1 µM, first compound 0.316 µM
[10] = second compound 0.1 µM, first compound 1 µM
[11] = second compound 0.1 µM, first compound 3.16 µM
[12] = second compound 0.1 µM, first compound 10 µM
[13] = second compound 0.316 µM, first compound 0.0316 µM
[14] = second compound 0.316 µM, first compound 0.1 µM
[15] = second compound 0.316 µM, first compound 0.316 µM
[16] = second compound 0.316 µM, first compound 1 µM
[17] = second compound 0.316 µM, first compound 3.16 µM
[18] = second compound 0.316 µM, first compound 10 µM
[19] = second compound 1 µM, first compound 0.0316 µM
[20] = second compound 1 µM, first compound 0.1 µM
[21] = second compound 1 µM, first compound 0.316 µM
[22] = second compound 1 µM, first compound 1 µM
[23] = second compound 1 µM, first compound 3.16 µM
[24] = second compound 1 µM, first compound 10 µM
[25] = second compound 3.16 µM, first compound 0.0316 µM
[26] = second compound 3.16 µM, first compound 0.1 µM
[27] = second compound 3.16 µM, first compound 0.316 µM
[28] = second compound 3.16 µM, first compound 1 µM
[29] = second compound 3.16 µM, first compound 3.16 µM
[30] = second compound 3.16 µM, first compound 10 µM
[31] = second compound 10 µM, first compound 0.0316 µM
[32] = second compound 10 µM, first compound 0.1 µM
[33] = second compound 10 µM, first compound 0.316 µM
[34] = second compound 10 µM, first compound 1 µM
[35] = second compound 10 µM, first compound 3.16 µM
[36] = second compound 10 µM, first compound 10 µM
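Note: spheroids exposed to the compounds for one week.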
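Throughout, for viability, T/C: percent of tumor spheroid viability relative to DMSO vehicle control wells.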

COc1cc(C2c3cc4c(cc3C(OC3OC5COC(C)OC5C(O)C3O)C3COC(=O)C23)OCO4)cc(OC)c1O (stereo not drawn) + CN(C)c1ccc(Nc2c3ccc(NC(=O)CCN4CCCC4)cc3nc3cc(NC(=O)CCN4CCCC4)ccc23)cc1
IC50 (second compound 0.0316 µM): 590 nM
IC50 (second compound 0.1 µM): 641 nM
IC50 (second compound 0.316 µM): 584 nM
IC50 (second compound 1 µM): 574 nM
IC50 (second compound 3.16 µM): 614 nM
IC50 (second compound 10 µM): < 31.6 nM
viability, T/C [1]: 106%
viability, T/C [2]: 96.7%
viability, T/C [3]: 73%
viability, T/C [4]: 30.5%
viability, T/C [5]: 13.4%
viability, T/C [6]: 8.11%
viability, T/C [7]: 106%
viability, T/C [8]: 94.4%
viability, T/C [9]: 77.1%
viability, T/C [10]: 33.1%
viability, T/C [11]: 13.5%
viability, T/C [12]: 9.28%
viability, T/C [13]: 100%
viability, T/C [14]: 111%
viability, T/C [15]: 73.3%
viability, T/C [16]: 28.8%
viability, T/C [17]: 13%
viability, T/C [18]: 7.51%
viability, T/C [19]: 88.4%
viability, T/C [20]: 97.5%
viability, T/C [21]: 72.5%
viability, T/C [22]: 28.2%
viability, T/C [23]: 13.1%
viability, T/C [24]: 7.5%
viability, T/C [25]: 88.5%
viability, T/C [26]: 83.8%
viability, T/C [27]: 78.8%
viability, T/C [28]: 28.8%
viability, T/C [29]: 14.4%
viability, T/C [30]: 10.3%
viability, T/C [31]: 18.7%
viability, T/C [32]: 24%
viability, T/C [33]: 22.1%
viability, T/C [34]: 11.4%
viability, T/C [35]: 10.1%
viability, T/C [36]: 8.35%

O=C(NO)c1cnc(N2CCN(S(=O)(=O)c3ccc4ccccc4c3)CC2)nc1 + CN(C)c1ccc(Nc2c3ccc(NC(=O)CCN4CCCC4)cc3nc3cc(NC(=O)CCN4CCCC4)ccc23)cc1
IC50 (second compound 0.0316 µM): 136 nM
IC50 (second compound 0.1 µM): 160 nM
IC50 (second compound 0.316 µM): 152 nM
IC50 (second compound 1 µM): 149 nM
IC50 (second compound 3.16 µM): 100 nM
IC50 (second compound 10 µM): < 31.6 nM
viability, T/C [1]: 89.6%
viability, T/C [2]: 61.1%
viability, T/C [3]: 20%
viability, T/C [4]: 3.35%
viability, T/C [5]: 0.33%
viability, T/C [6]: 0.17%
viability, T/C [7]: 90.8%
viability, T/C [8]: 67.4%
viability, T/C [9]: 25.1%
viability, T/C [10]: 3.87%
viability, T/C [11]: 0.15%
viability, T/C [12]: 0.11%
viability, T/C [13]: 84.1%
viability, T/C [14]: 63.9%
viability, T/C [15]: 25.8%
viability, T/C [16]: 3.96%
viability, T/C [17]: 0.19%
viability, T/C [18]: 0.24%
viability, T/C [19]: 74.8%
viability, T/C [20]: 65.2%
viability, T/C [21]: 21.4%
viability, T/C [22]: 5.44%
viability, T/C [23]: 0.13%
viability, T/C [24]: 0.56%
viability, T/C [25]: 60.2%
viability, T/C [26]: 50.6%
viability, T/C [27]: 21.1%
viability, T/C [28]: 5.9%
viability, T/C [29]: 0.29%
viability, T/C [30]: 0.11%
viability, T/C [31]: 15.4%
viability, T/C [32]: 15.4%
viability, T/C [33]: 9.93%
viability, T/C [34]: 3.09%
viability, T/C [35]: 0.66%
viability, T/C [36]: 0.31%

CC(C)(O)C1CCC(Nc2ccc3ncc(-c4cccc(C(F)(F)F)c4)n3n2)CC1 (stereo not drawn) + Cc1[nH]c2ccc(F)cc2c1-c1nc2c3cccnc3c3ncccc3c2[nH]1
IC50 (second compound 0.0316 µM): > 10000 nM
IC50 (second compound 0.1 µM): > 10000 nM
IC50 (second compound 0.316 µM): > 10000 nM
IC50 (second compound 1 µM): 6910 nM
IC50 (second compound 3.16 µM): < 31.6 nM
IC50 (second compound 10 µM): < 31.6 nM
viability, T/C [1]: 102%
viability, T/C [2]: 92.3%
viability, T/C [3]: 92.1%
viability, T/C [4]: 95.3%
viability, T/C [5]: 99%
viability, T/C [6]: 81.1%
viability, T/C [7]: 106%
viability, T/C [8]: 101%
viability, T/C [9]: 92.8%
viability, T/C [10]: 76.1%
viability, T/C [11]: 84.9%
viability, T/C [12]: 86.9%
viability, T/C [13]: 101%
viability, T/C [14]: 89.6%
viability, T/C [15]: 83.1%
viability, T/C [16]: 92.5%
viability, T/C [17]: 81.8%
viability, T/C [18]: 63.6%
viability, T/C [19]: 69%
viability, T/C [20]: 70.7%
viability, T/C [21]: 73.6%
viability, T/C [22]: 69.9%
viability, T/C [23]: 58.6%
viability, T/C [24]: 45.3%
viability, T/C [25]: 9.24%
viability, T/C [26]: 12.2%
viability, T/C [27]: 10.3%
viability, T/C [28]: 10.4%
viability, T/C [29]: 12.7%
viability, T/C [30]: 2.78%
viability, T/C [31]: 1.94%
viability, T/C [32]: 1.3%
viability, T/C [33]: 2.71%
viability, T/C [34]: 3.75%
viability, T/C [35]: 4.01%
viability, T/C [36]: 1%

Cc1cccc(N(C)C(=O)C2C(O)CCN2c2nc(C)cc(C(F)(F)F)c2C#N)c1 (stereo not drawn) + Cc1[nH]c2ccc(F)cc2c1-c1nc2c3cccnc3c3ncccc3c2[nH]1
IC50 (second compound 0.0316 µM): > 10000 nM
IC50 (second compound 0.1 µM): > 10000 nM
IC50 (second compound 0.316 µM): > 10000 nM
IC50 (second compound 1 µM): > 10000 nM
IC50 (second compound 3.16 µM): < 31.6 nM
IC50 (second compound 10 µM): < 31.6 nM
viability, T/C [1]: 101%
viability, T/C [2]: 92.6%
viability, T/C [3]: 108%
viability, T/C [4]: 97.3%
viability, T/C [5]: 96.7%
viability, T/C [6]: 91.5%
viability, T/C [7]: 98.5%
viability, T/C [8]: 99.8%
viability, T/C [9]: 100%
viability, T/C [10]: 94.2%
viability, T/C [11]: 105%
viability, T/C [12]: 93.2%
viability, T/C [13]: 90.2%
viability, T/C [14]: 98.9%
viability, T/C [15]: 98.8%
viability, T/C [16]: 94.2%
viability, T/C [17]: 90.7%
viability, T/C [18]: 82.4%
viability, T/C [19]: 83.5%
viability, T/C [20]: 78.2%
viability, T/C [21]: 87.4%
viability, T/C [22]: 88.8%
viability, T/C [23]: 90.5%
viability, T/C [24]: 68.6%
viability, T/C [25]: 30.2%
viability, T/C [26]: 30.1%
viability, T/C [27]: 16.5%
viability, T/C [28]: 22.4%
viability, T/C [29]: 20.8%
viability, T/C [30]: 19.9%
viability, T/C [31]: 3.35%
viability, T/C [32]: 3.56%
viability, T/C [33]: 2.69%
viability, T/C [34]: 2.33%
viability, T/C [35]: 2.29%
viability, T/C [36]: 2.63%
